Assay: Human HepG2 cell viability assay in 384 well format
Format: toxicity, cell-based
Design: dose 125 nL, time 70.5 hour; cytotoxicity at 70.5 h: concentration not given beside the values
Details: HepG2 cells, read-out: Inhibition
Molecule `O=C(NCc1nnc2n1CCC2)N1CCc2sccc2C1` has a cytotoxicity at 70.5 h of -6.3%.
`Cn1cc(C(=O)Nc2ccc3c(c2)CN(C(=O)c2ccco2)CC3)nn1` showed a cytotoxicity at 70.5 h of -4.02%.
For `CN(C)C(=O)N1CCC(c2nc3ccc(-c4ccccc4)cn3n2)CC1`, the cytotoxicity at 70.5 h was -4.01%.
In the case of `O=C(O)C1CN(c2cccc(F)c2)CCO1` (stereo unspecified), the cytotoxicity at 70.5 h is reported as 14.9%.
For `CCn1c(C)nnc1SCCNc1nc(C)nc2c1cnn2C`, the cytotoxicity at 70.5 h was -9.87%.
Work on `CNC(=O)[C@@H]1[C@@H](c2ccccc2)CN2CCN(Cc3ccco3)C[C@H]12` yielded a cytotoxicity at 70.5 h of 23.2%.
`N#Cc1ccc(CN2CCCC2Cn2cccn2)cc1` (stereo unspecified) showed a cytotoxicity at 70.5 h of 2.25%.
Molecule `Cc1nc(NC(=O)NC2CC(=O)N(C)C2)nn1C` (stereo unspecified) has a cytotoxicity at 70.5 h of 7.5%.
In the case of `CCOC(=O)CC(C)NC(=O)c1cn(Cc2ccccc2F)nn1` (stereo unspecified), the cytotoxicity at 70.5 h is reported as -1.02%.
With `CS(=O)(=O)NCc1ncn2c1CN(CCN1CCCC1)CCC2` the cytotoxicity at 70.5 h was -6.23%.
With `CC(OCC(F)(F)F)C(=O)N1CCN(S(C)(=O)=O)CC1` (stereo unspecified) the cytotoxicity at 70.5 h was -1.69%.
Work on `O=C(Nc1cccnc1)[C@@H]1C[C@H]2OCC[C@H]2N(Cc2nccs2)C1` yielded a cytotoxicity at 70.5 h of -6.06%.
For `CCCN1CC(C(=O)Nc2ccccn2)CC1=O` (stereo unspecified), the cytotoxicity at 70.5 h was -5.78%.
Work on `CC(C)CC(=O)Nc1ccc2c(c1)ncn2CC(=O)NCCN(C)C` yielded a cytotoxicity at 70.5 h of -6.17%.
`O=C(Nc1ccccc1CCO)c1cccc(CN2CC[C@H](O)C2)c1` gave a cytotoxicity at 70.5 h of -8.22%.
For `Cc1cnn(C2CN(CC(=O)NCCOc3ccccc3)C2)c1`, the cytotoxicity at 70.5 h was -4.92%.
Molecule `N#Cc1cccc(N2CCCC3(C2)CN(c2ncc(F)cn2)CCO3)n1` (stereo unspecified) has a cytotoxicity at 70.5 h of 1.87%.
With `Cc1noc(C)c1CCC(=O)N(C)C(C)c1cccs1` (stereo unspecified) the cytotoxicity at 70.5 h was -11.3%.
For `CN(C)c1ccc(CC(=O)N2CCOCC(O)C2)cc1` (stereo unspecified), the cytotoxicity at 70.5 h was 22.5%.
For `CN(C)Cc1cc(=O)n2c(n1)CN(S(=O)(=O)C1CC1)CCC2`, the cytotoxicity at 70.5 h was -6.08%.
`Cc1ncsc1C(=O)N(C)Cc1ccc(Br)o1` showed a cytotoxicity at 70.5 h of 20.1%.
`COc1ccc(CN(C)[C@@H]2CN(C(=O)c3cccs3)C[C@H]2O)cc1` showed a cytotoxicity at 70.5 h of -6.31%.
Work on `O=c1[nH]c2c(c(=O)n1C1CCCCC1)CCC2Nc1ccccc1Cl` (stereo unspecified) yielded a cytotoxicity at 70.5 h of 21.6%.
Molecule `CC1(C)CNC(=O)c2nc(CCN3CCCCC3CO)[nH]c2C1` (stereo unspecified) has a cytotoxicity at 70.5 h of 4.33%.
For `CCCc1nc(CNc2cccc(C(=O)N3CCCC(O)C3)c2)no1` (stereo unspecified), the cytotoxicity at 70.5 h was -4.84%.
With `COCC1c2nnn(CC3CC3)c2CCN1C(=O)c1ccnnc1` (stereo unspecified) the cytotoxicity at 70.5 h was -6.63%.
`CCOc1ccc2[nH]c(=O)c(CN3CCCC3c3ccccn3)cc2c1` (stereo unspecified) showed a cytotoxicity at 70.5 h of -11.8%.
Work on `CCc1nc(CC(=O)N2CCn3c(nnc3C(C)C)C2)cs1` yielded a cytotoxicity at 70.5 h of 0.586%.
With `O=C(NCCc1cc(N2CCOCC2)nc(N2CCCC2)n1)C1CC1` the cytotoxicity at 70.5 h was -5.52%.
In the case of `Cc1cc(CN(C)C(=O)NCC(C)N2CCc3ccccc32)no1` (stereo unspecified), the cytotoxicity at 70.5 h is reported as -2.66%.
Molecule `NC(=O)CC1CCN(C(=O)c2cnc(-c3ccccc3F)s2)CC1` has a cytotoxicity at 70.5 h of -22.8%.
In the case of `CC(O)CCN(C)c1nc2ccccc2c(=O)[nH]1` (stereo unspecified), the cytotoxicity at 70.5 h is reported as -6.49%.
With `CC(NC(=O)Cn1cccn1)c1ccc2c(c1)OCCO2` (stereo unspecified) the cytotoxicity at 70.5 h was -11.1%.
`CCN(Cc1ccco1)C(=O)NCC(C)N1CCc2sccc2C1` (stereo unspecified) showed a cytotoxicity at 70.5 h of 13.6%.
With `CCc1n[nH]c(C(=O)NCCn2ccnc2C)c1C` the cytotoxicity at 70.5 h was -5.75%.
Molecule `CCOC(=O)N1CCCC2(CCN(Cc3ccccc3C#N)C2)C1` (stereo unspecified) has a cytotoxicity at 70.5 h of -6.46%.
Molecule `Cc1csc(C2(NCc3nc(-c4ccco4)no3)CCCC2)n1` has a cytotoxicity at 70.5 h of -12.8%.
`Cc1ccccc1CN(CC(=O)O)C(=O)COCC1CC1` gave a cytotoxicity at 70.5 h of 0.683%.
For `Cc1nc(CN2CCN(CCOc3ccc(C(C)C)c(C)c3)CC2)no1`, the cytotoxicity at 70.5 h was 8.91%.
For `COc1ccc2c(c1)CC(C1CCOCC1)N(C(=O)c1ccnn1C)C2` (stereo unspecified), the cytotoxicity at 70.5 h was -0.842%.
Work on `CNS(=O)(=O)c1cccc(CNC(=O)CCc2ccsc2)c1` yielded a cytotoxicity at 70.5 h of -4.01%.
Work on `CNS(=O)(=O)c1ccc(C(=O)NCc2ccnc(OC)c2)cc1` yielded a cytotoxicity at 70.5 h of -10%.
Molecule `c1csc(CCN2CCCC2c2noc(C3CC3)n2)c1` (stereo unspecified) has a cytotoxicity at 70.5 h of -7.22%.
With `COc1ccc(OC)c(CNc2c(O)c(=O)c2=O)c1` the cytotoxicity at 70.5 h was -21.2%.
In the case of `Cc1ccc(F)cc1C(=O)OCC1CCCN1C(N)=O` (stereo unspecified), the cytotoxicity at 70.5 h is reported as -1.91%.
`Cc1ccc(CN(CCCN2CCOCC2)Cc2[nH]cnc2C)o1` showed a cytotoxicity at 70.5 h of -2.33%.
Molecule `O=C(NCC(O)c1ccc(F)cc1F)c1cccnc1O` (stereo unspecified) has a cytotoxicity at 70.5 h of -15.5%.
For `O=C(C[C@@H]1COC[C@H]2CN(Cc3cccnc3)C[C@@H]12)N1CCOCC1`, the cytotoxicity at 70.5 h was 29.4%.
In the case of `CN(C)S(=O)(=O)N1C[C@@H](Oc2ccccn2)[C@H]2OCCC[C@H]21`, the cytotoxicity at 70.5 h is reported as -7.76%.
Work on `COc1nn(C)c2c1CCCN(C(=O)c1cccc3cccnc13)C2` yielded a cytotoxicity at 70.5 h of -4.18%.
In the case of `COc1ccc(NC2(C(=O)N3CCn4cncc4C3)CCCC2)cc1`, the cytotoxicity at 70.5 h is reported as -11.8%.
Work on `Cc1nccn1-c1ccc(N2CCC(N[C@H](C)C(C)C)CC2)cc1` yielded a cytotoxicity at 70.5 h of 0.757%.
`O=C(c1ccccn1)N1CCC2(CNS(=O)(=O)c3cnccc3O2)C1` (stereo unspecified) showed a cytotoxicity at 70.5 h of 17.6%.
Work on `CSCCC(C)(O)CNS(=O)(=O)Cc1cccc(C)c1` (stereo unspecified) yielded a cytotoxicity at 70.5 h of -16.9%.
With `COCCN(C/C=C/c1ccccc1)Cc1[nH]cnc1C` the cytotoxicity at 70.5 h was 1.05%.
With `COCCN(CCc1ccccc1)Cc1nc2c(cnn2C)c(=O)[nH]1` the cytotoxicity at 70.5 h was -3.4%.
Work on `COc1ccc(C(=O)N2C[C@@H](C(=O)O)[C@H](c3ccccc3)C2)c(C)c1` yielded a cytotoxicity at 70.5 h of 11.5%.
Molecule `COCC(NC(=O)NCc1sc(C)nc1C)c1ccco1` (stereo unspecified) has a cytotoxicity at 70.5 h of 7.86%.
For `CCOCC1CN(S(C)(=O)=O)Cc2nn(C)cc21` (stereo unspecified), the cytotoxicity at 70.5 h was -3.61%.
`O=C(c1cccc(N2CCCC2=O)c1)N1CCCC(n2cccn2)C1` (stereo unspecified) showed a cytotoxicity at 70.5 h of -6.59%.
Work on `CCc1nc(CN2CCCN(C(=O)c3c(C)noc3C)CC2)cs1` yielded a cytotoxicity at 70.5 h of -12.9%.
`CCCN1C[C@H]2CC[C@@H]1CN(C(=O)Cn1c(C)cc(C)nc1=O)C2` gave a cytotoxicity at 70.5 h of -14.9%.
`COc1ccc(NC(=O)c2nc3ccccc3n(C)c2=O)c(OC)c1` gave a cytotoxicity at 70.5 h of -0.905%.
Work on `Cc1cc(C)c(N(CC(O)CNCc2ccccc2)S(C)(=O)=O)c(C)c1` (stereo unspecified) yielded a cytotoxicity at 70.5 h of -6.51%.
Molecule `Cn1cc(I)c(C(=O)NC2CCCC2)n1` has a cytotoxicity at 70.5 h of 10.4%.
`COCc1noc(CN2CCCCC2CCc2cccs2)n1` (stereo unspecified) gave a cytotoxicity at 70.5 h of -14.8%.
`Cc1noc(C)c1CN1CCO[C@H]2CN(Cc3cncn3C)C[C@H]21` showed a cytotoxicity at 70.5 h of 19%.
For `Cc1cc2n(n1)[C@@H](C(F)(F)F)C[C@@H](C1CCCN(C(=O)C(C)C)C1)N2` (stereo partly specified), the cytotoxicity at 70.5 h was -3.95%.
Work on `CC(=O)N1CCc2c(nc(N(C)C)nc2NCCc2cccs2)C1` yielded a cytotoxicity at 70.5 h of -5.76%.
With `CN(CCOc1ccc(Br)cc1)Cc1cscn1` the cytotoxicity at 70.5 h was 1.92%.
With `OC(CN1CCCCCCC1)c1ccc(F)cc1` (stereo unspecified) the cytotoxicity at 70.5 h was 3.53%.
For `COc1cc(N2C[C@H]3CCC[C@@H](CN(C)C4CC4)[C@H]3C2)ncn1`, the cytotoxicity at 70.5 h was -1.7%.
`CN1C(=O)CCC12CCCN(C(=O)c1ccncc1F)C2` (stereo unspecified) gave a cytotoxicity at 70.5 h of -5.46%.
Work on `Cc1ccccc1SCC(=O)NC1CCC(O)CC1` (stereo unspecified) yielded a cytotoxicity at 70.5 h of 7.04%.
With `CCC(CC)C(O)CNC(=O)Cc1c[nH]c2ncccc12` (stereo unspecified) the cytotoxicity at 70.5 h was -4.44%.
Work on `CC(CN1CCOCC1)NC(=O)N1CCCC1` (stereo unspecified) yielded a cytotoxicity at 70.5 h of -3.6%.
With `Cc1cc(C)c2ncc(C#N)c(N3CCS(=O)(=O)CC3)c2c1` the cytotoxicity at 70.5 h was -7.23%.
Work on `Cc1cc(N2CCC(c3ncc[nH]3)CC2)cc(C)n1` yielded a cytotoxicity at 70.5 h of -3.01%.
`Cc1c(C(=O)N2CCS(=O)(=O)CC2)nnn1-c1ccc2ncccc2c1` gave a cytotoxicity at 70.5 h of -4.2%.
`O=C(C1=CCCC1)N1CCO[C@H]2[C@@H](OCC3CC3)CC[C@@H]21` showed a cytotoxicity at 70.5 h of -17.4%.
In the case of `O=c1[nH]ccn1CCCN1CC=C(c2cnn(-c3ccccc3)c2)CC1`, the cytotoxicity at 70.5 h is reported as -2.11%.

Source: ChEMBL document CHEMBL3507680, “University of Dundee, Gates Library screen for HepG2 cell viability”
